Data reported in US10017550B2, “Mycobacterium tuberculosis porins and toxins and related methods” (priority 2011, dated 2018).
≈ marks a conversion by molar mass, not a printed value.

B1: N-terminal domain of MtpA: N-terminal domain (aa 1-444) of MtpA (Rv3903c), HA- and His-tagged, expressed in and purified from M. smegmatis (protein, UniProt O05442 1-444, looked up, fragment)
chain: MAPLAVDPAALDSAGGAVVAAGAGLGAVISSLTAALAGCAGMAGDDPAGAVFGRSYDGSAAALVQAMSVARNGLCNLGDGVRMSAHNYSLAEAMSDVAGRAAPLPAPPPSGCVGVGAPPSAVGGGGGAPKGWGWVAPYIGMIWPNGDSTKLRAAAVAWRSAGTQFALTEIQSTAGPMGVIRAQQLPEAGLIESAFADAYASTTAVVGQCHQLAAQLDAYAARIDAVHAAVLDLLARICDPLTGIKEVWEFLTDQDEDEIQRIAHDIAVVVDQFSGEVDALAAEITAVVSHAEAVITAMADHAGKQWDRFLHSNPVGVVIDGTGQQLKGFGEEAFGMAKDSWDLGPLRASIDPFGWYRSWEEMLTGMAPLAGLGGENAPGVVESWKQFGKSLIHWDEWTTNPNEALGKTVFDAATLALPGGPLSKLGSKGRDILAGVRGLKERLE
modifications: HA and His tags
notes: N-terminal domain (aa 1-444) of MtpA (Rv3903c), HA- and His-tagged, expressed in and purified from M. smegmatis
B2: N-terminal domain of MtpA (aa 49-444): truncated N-terminal domain of MtpA, codon optimized, Strep-, HA- and His-tagged, purified from E. coli (protein, UniProt O05442 49-444, looked up, fragment)
chain: GAVFGRSYDGSAAALVQAMSVARNGLCNLGDGVRMSAHNYSLAEAMSDVAGRAAPLPAPPPSGCVGVGAPPSAVGGGGGAPKGWGWVAPYIGMIWPNGDSTKLRAAAVAWRSAGTQFALTEIQSTAGPMGVIRAQQLPEAGLIESAFADAYASTTAVVGQCHQLAAQLDAYAARIDAVHAAVLDLLARICDPLTGIKEVWEFLTDQDEDEIQRIAHDIAVVVDQFSGEVDALAAEITAVVSHAEAVITAMADHAGKQWDRFLHSNPVGVVIDGTGQQLKGFGEEAFGMAKDSWDLGPLRASIDPFGWYRSWEEMLTGMAPLAGLGGENAPGVVESWKQFGKSLIHWDEWTTNPNEALGKTVFDAATLALPGGPLSKLGSKGRDILAGVRGLKERLE
modifications: Strep, HA and His tags
notes: truncated N-terminal domain of MtpA, codon optimized, Strep-, HA- and His-tagged, purified from E. coli

Assays:
M. Bovis BCG Wild-type = test: microbe, parasite or virus in culture; format: cell-based; conditions: Mycobacterium tuberculosis variant bovis BCG
[1] = test system: M. Bovis BCG ΔMtpA + MtpA; format: cell-based
[2] = test system: M. Bovis BCG ΔMtpA + MspA; format: cell-based
M. Bovis BCG ΔMtpA = format: cell-based; conditions: for Resistance factor: ratio MICΔMtpA/MICwt
[3] = test system: ΔMtpA mutant of M. bovis BCG in human monocyte-derived macrophages (HMDM); format: cell-based
[4] = test system: wild-type M. bovis BCG in human monocyte-derived macrophages (HMDM); format: cell-based
[5] = Channel activity analysis, planar lipid bilayer single channel recording; format: biochemical

Molecule | MIC (M. Bovis BCG Wild-type; wild-type strain) | MIC for M. Bovis BCG ΔMtpA + MtpA [1] | MIC for M. Bovis BCG ΔMtpA + MspA [2] | MIC for M. Bovis BCG ΔMtpA (M. Bovis BCG ΔMtpA) | Resistance factor (M. Bovis BCG ΔMtpA) | further results
CC1(C)S[C@@H]2[C@H](NC(=O)[C@H](N)c3ccccc3)C(=O)N2[C@H]1C(=O)O [Ampicillin] | 30 µg/mL (≈ 85.9 µM) | 60 µg/mL | 60 µg/mL | 960 µg/mL | 32 | increased minimal inhibitory concentration (MIC) / resistance in the ΔMtpA strain (M. Bovis BCG ΔMtpA): 32 fold
O=C(N[C@H](CO)[C@H](O)c1ccc([N+](=O)[O-])cc1)C(Cl)Cl [Chloramphenicol] | 4 µg/mL (≈ 12.4 µM) | 8 µg/mL | 8 µg/mL | 64 µg/mL | 16 | increased minimal inhibitory concentration (MIC) / resistance in the ΔMtpA strain (M. Bovis BCG ΔMtpA): 16 fold
O=C(O)c1cn(C2CC2)c2cc(N3CCNCC3)c(F)cc2c1=O [Ciprofloxacin] |  | 2 µg/mL | 2 µg/mL |  |  | MIC (M. Bovis BCG Wild-type): 1 µg/mL (≈ 3.02 µM)
CC[C@H]1OC(=O)[C@H](C)[C@@H](O[C@H]2C[C@@](C)(OC)[C@@H](O)[C@H](C)O2)[C@H](C)[C@@H](O[C@@H]2O[C@H](C)C[C@H](N(C)C)[C@H]2O)[C@](C)(OC)C[C@@H](C)C(=O)[C@H](C)[C@@H](O)[C@]1(C)O [Clarithromycin] | 0.125 µg/mL (≈ 0.167 µM) | 0.25 µg/mL | 0.5 µg/mL | >2 µg/mL | >16 | 
CC[C@H]1OC(=O)[C@H](C)[C@@H](O[C@H]2C[C@@](C)(OC)[C@@H](O)[C@H](C)O2)[C@H](C)[C@@H](O[C@@H]2O[C@H](C)C[C@H](N(C)C)[C@H]2O)[C@](C)(O)C[C@@H](C)C(=O)[C@H](C)[C@@H](O)[C@]1(C)O [Erythromycin A] | 16 µg/mL (≈ 21.8 µM) | 16 µg/mL | 32 µg/mL |  | >16 | 
CC[C@@H](CO)NCCN[C@@H](CC)CO [Ethambutol] | 0.125 µg/mL (≈ 0.612 µM) | 0.125 µg/mL | 0.125 µg/mL | >1 µg/mL | >8 | change of resistance / MIC in the ΔMtpA mutant, in words (M. Bovis BCG ΔMtpA): more than eight-fold
NNC(=O)c1ccncc1 [Isoniazid] | 0.25 µg/mL (≈ 1.82 µM) |  | 0.25 µg/mL | >1 µg/mL | >4 | change of resistance / MIC in the ΔMtpA mutant, in words (M. Bovis BCG ΔMtpA): more than eight-fold
C[C@H]1COc2c(N3CCN(C)CC3)c(F)cc3c(=O)c(C(=O)O)cn1c23 [Levofloxacin] | 0.125 µg/mL (≈ 0.346 µM) |  |  |  |  | 
COc1c(N2C[C@@H]3CCCN[C@@H]3C2)c(F)cc2c(=O)c(C(=O)O)cn(C3CC3)c12 [Moxifloxacin] | 0.5 µg/mL (≈ 1.25 µM) |  |  |  |  | 
CCn1cc(C(=O)O)c(=O)c2cc(F)c(N3CCNCC3)cc21 [Norfloxacin] | 1 µg/mL (≈ 3.13 µM) | 2 µg/mL | 2 µg/mL | 4 µg/mL | 4 | 
CC1COc2c(N3CCN(C)CC3)c(F)cc3c(=O)c(C(=O)O)cn1c23 (stereo not shown) [Ofloxacin] | 0.25 µg/mL (≈ 0.692 µM) |  |  |  |  | 
CO[C@H]1/C=C/O[C@@]2(C)Oc3c(C)c(O)c4c(O)c(c(/C=N/N5CCN(C)CC5)c(O)c4c3C2=O)NC(=O)/C(C)=C\C=C\[C@H](C)[C@H](O)[C@@H](C)[C@@H](O)[C@@H](C)[C@H](OC(C)=O)[C@@H]1C [Rifampicin] |  |  |  |  |  | MIC (M. Bovis BCG Wild-type): 0.008 µg/mL (≈ 0.00972 µM)
[H]/N=C(/N)N[C@H]1[C@H](O)[C@@H](O)[C@H](O[C@@H]2O[C@@H](C)[C@](O)(C=O)[C@H]2O[C@@H]2O[C@@H](CO)[C@H](O)[C@@H](O)[C@@H]2NC)[C@@H](N/C(N)=N\[H])[C@@H]1O [Streptomycin] | 0.16 µg/mL (≈ 0.275 µM) | 0.32 µg/mL | 0.32 µg/mL | 0.64 µg/mL | 4 | 
CN(C)[C@@H]1C(O)=C(C(N)=O)C(=O)[C@@]2(O)C(O)=C3C(=O)c4c(O)cccc4[C@@](C)(O)[C@H]3C[C@@H]12 [Tetracycline] |  |  |  |  |  | MIC (M. Bovis BCG Wild-type): 31.2 µg/mL (≈ 70.3 µM)
CN[C@H](CC(C)C)C(=O)N[C@H]1C(=O)N[C@@H](CC(N)=O)C(=O)N[C@H]2C(=O)N[C@H]3C(=O)N[C@H](C(=O)N[C@H](C(=O)O)c4cc(O)cc(O)c4-c4cc3ccc4O)[C@H](O)c3ccc(c(Cl)c3)Oc3cc2cc(c3O[C@@H]2O[C@H](CO)[C@@H](O)[C@H](O)[C@H]2O[C@H]2C[C@](C)(N)[C@H](O)[C@H](C)O2)Oc2ccc(cc2Cl)[C@H]1O [Vancomycin] |  | 10 µg/mL | 10 µg/mL | 20 µg/mL | 4 | MIC (M. Bovis BCG Wild-type): 5 µg/mL (≈ 3.45 µM)
N[C@@H]1CON=C1O [cycloserine] | 4 µg/mL (≈ 39.2 µM) | 4 µg/mL | 4 µg/mL | 8 µg/mL | 2 | 
Nc1ccc(C(=O)O)c(O)c1 [p-aminosalicylic acid] | 2 µg/mL (≈ 13.1 µM) | 2 µg/mL | 2 µg/mL | >8 µg/mL | >4 | change of resistance / MIC in the ΔMtpA mutant, in words (M. Bovis BCG ΔMtpA): more than eight-fold
γ-interferon: human IFN-γ, induces nitric oxide synthase activity in macrophages |  |  |  |  |  | survival in treated macrophages compared to untreated cells [3]: no significant difference; bacteria recovered from stimulated HMDMs [4]: drastic decrease in bacteria recovered
B1 |  |  |  |  |  | most frequent (main) single channel conductance [5]: 4.0±0.2 nS
B2 |  |  |  |  |  | single channel conductance of protein purified from E. coli compared to that purified from M. smegmatis [5]: almost identical
